Experimental data reported in patent US20260174677A1, “METHODS OF TREATING INSULIN RESISTANCE AND ASSOCIATED DISORDERS” (The University of Melboune, priority 2022, published 2026).

Tested on: CSPG-ECM components (mixed CSPGs, aggrecan, chondroitin 4-sulfate)
Assay: CSPG-ECM binding assay with insulin-FITC in vitro
Procedure: To determine the interaction of insulin with CSPG-ECM components in vitro, flat-bottom 96-well plates were first coated with 10 μg/ml poly-L-lysine overnight, followed by a rinsing with water. A purified CSPGs mix containing neurocan, phosphacan, versican and aggrecan (CC117, Merck Millipore, MA), purified aggrecan ([…], Merck Millipore, MA) or purified chondroitin 4-sulfate ([…], Selleck Chemicals, TX), were coated onto the 96-well plates at a concentration of 10 μg/ml for 4 h at RT, followed by a rinse with water. Insulin-FITC was incubated on plates containing ECM at concentrating ranging from 5 ng/ml-1 mg/ml for 2 h at RT and protected from light. Control wells contained either no ECM, bovine serum albumin (10 μg/ml) or poly-L-lysine alone. Wells were washed 3 times with water and imaged at 495 nm using a SPECTROstar Nano Microplate Reader (BMG Labtech, Germany). To digest CSPG-ECM or to negate CSPG-ECM negative charge. wells were incubated with either chABC (0.5 U/ml) or poly-l-arginine (10 μg/ml, […], Merck Millipore, MA) for 1 h at 37° C. after the ECM coating, washed 3 times with water and then incubated with insulin-FITC.

binding of insulin-FITC to mixed CSPGs, aggrecan and C4S (2-hours incubation on coated plates) | insulin-ECM interactions (insulin-FITC with CSPG mix) in the presence of the agent (in the presence of poly-arginine) | Substance
specific dose-dependent binding | – | insulin-FITC: fluorescein isothiocyanate tagged insulin
– | significantly reduced | poly-arginine
